Experimental findings from patent US8906913B2, “Azabicyclohexanes” (Panacea Biotec Limited, priority 2009, dated 2014) are described below.

Test [1] relates to male SWISS albino mice. Briefly: Forced Swim Test. Format: in vivo. The following applies: Table 8, mice, oral; for inhibition in vivo at 32 mg/kg: Mus musculus, 0.25 h, read-out: % decrease in immobility time (dose 32 mg/kg). As to the method: This test was conducted according to the method of Porsolt et al. (Porsolt, R. D., et al., Behavioural despair in mice: A primary screening test for antidepressants. Arch. in Pharmacodyn. Ther., 229, pp 327-336 (1977)).
A test compound was suspended in deionized water, unless otherwise specified, and this suspension was orally administered to male SWISS albino mice (7 to 9 week old). 15 min later, the mice were placed in a water tank having a water depth of 15 cm and a water temperature of 25±1° C. and immediately thereafter allowed to swim for 6 min. Then, a time during which the mouse was immobile (immobility time) was measured for the last 4 min.

Test [2] deals with Staphylococcus aureus ATCC 33591 MRSA (Methicillin resistant). Briefly: In-vitro antibacterial activity, broth microdilution MIC. Format: cell-based. As to the method: (§1) The in-vitro antibacterial activity of the compounds of the present invention (as described in Table 7) was determined by a broth microdilution following the guidelines prescribed by the Clinical and Laboratory Standards Institute (CLSI). This method is described in the CLSI Document M7-A7, Vol. 26, No. 2, “Methods for Dilution Antimicrobial Susceptibility Test for Bacteria that Grow Aerobically; Approved Standard-Seventh Edition”, which is incorporated herein by reference. Minimum Inhibitory Concentration (MIC) is defined as the minimum concentration of test compound which inhibits the growth of bacteria as visible or seen by the naked eye. This test can also be carried out by agar dilution method.
(§2) The compounds of the present invention were tested against a panel of standard microorganisms obtained from ATCC (American type culture collection). Linezolid was used as comparator in all the tests.
(§3) In the broth microdilution method, the compound was dissolved in dimethylsulfoxide and two fold serial dilutions were carried out in 96 well microtitre plates. The inoculum was prepared by adjusting the turbidity of actively growing broth culture and added to the wells to obtain a final bacterial count of ˜2-5×10^4 CFU/well. The microtitre plates were incubated at 35±2° C. for 16-20 h and then read visually.
On the technique in general: Broth dilution looks for growth in wells or tubes with falling amounts of substance.

For test [3], the system named is Enterococcus faecalis ATCC 29212 Vancomycin Sensitive. Described as above. Format: cell-based. Here is the method: as §1, §2, §3
Test [4] has as its system Staphylococcus aureus ATCC 29213 MSSA (Methicillin sensitive). The test is described as above. Format: cell-based. As to the method: as §1, §2, §3
In test [5] the test system is Enterococcus faecium ATCC 700221 VRE (Vancomycin resistant E. faecium). Described as above. Format: cell-based. As to the method:
as §1, §2, §3

Setting [6] is: suspended in deionized water, 15 min before test.
[7] abbreviates: Table 7, S. aureus MRSA, broth microdilution, 35±2° C., 16-20 h, read-out: MIC ATCC 33591.
[8] abbreviates: ATCC29212, Table 7, E. faecalis vancomycin sensitive, broth microdilution, 35±2° C., 16-20 h, read-out: MIC ATCC 29212.
Setting [9] is: Table 7, S. aureus MSSA, broth microdilution, 35±2° C., 16-20 h, read-out: MIC ATCC 29213.
Where [10] appears, read: Table 7, broth microdilution, 35±2° C., 16-20 h, read-out: MIC ATTC 700221.

Structures are written as SMILES. Converted amounts (≈) assume the structure as drawn. Read-outs that look alike come from different tables or passages of the source. Marks after values point to notes of the source that are not given here.

Consider `CCN1C[C@H]2C[C@@]2(c2ccc(N3CCOCC3)cc2)C1`, for which the inhibition in vivo at 32 mg/kg in test [1] (setting [6]) was determined as 87.7 ± 6%.
`CCN1C[C@@H]2C[C@]2(c2ccc(N3CC(C)OC(C)C3)cc2)C1` (stereo partly drawn): in test [1] (setting [6]), the inhibition in vivo at 32 mg/kg amounted to 80.9 ± 8.7%.
With `CCN1C[C@H]2C[C@@]2(c2ccc(N3CC(C)OC(C)C3)cc2)C1` (stereo partly drawn), in test [1] (setting [6]), the “% decrease in immobility time (dose 64 mg/kg)” value (“% decrease in immobility time” for short) is reported as 92.4 ± 7.6%.
The same measure, in the same setting: the result for `CCN1CC2C(COC)C2(c2ccc(N3CCOCC3)cc2)C1` (stereo not drawn) reads 58.4 ± 10.1%.
For `COCC1C2CNCC21c1ccc(N2CCOCC2)cc1` (stereo not drawn), the “% decrease in immobility time” value in test [1] (vehicle 0.25% CMC) is on record as 60.8 ± 20.9^z %.
Take `c1cc(C23CNCC2C3)ccc1N1CCOCC1` (stereo not drawn) [drawing 510]: the “% decrease in immobility time” value in test [1] (setting [6]) was 37.6 ± 14.5%.
In the case of `CCN1CC2CC2(c2ccc(N3CCOCC3=O)cc2)C1.Cl` (stereo not drawn), the “% decrease in immobility time” value in test [1] (setting [6]) turned out to be 88.7 ± 5.2%.
On to `COCCN1C[C@H]2C[C@@]2(c2ccc(N3CCOCC3)cc2)C1`, for which the “% decrease in immobility time” value in test [1] (setting [6]) stood at 79.2 ± 14.9%.
As to `CC(=O)NC[C@H]1CN(c2ccc(C34CC3CN(c3nccs3)C4)cc2)C(=O)O1` (stereo partly drawn), the MIC in test [2] (setting [7]) came out at 0.25 µg/mL (≈ 0.627 µM); in test [3] (setting [8]) it was 0.125 µg/mL (≈ 0.314 µM); in test [4] (setting [9]), 0.5 µg/mL (≈ 1.25 µM); in test [5] (setting [10]), 0.5 µg/mL (≈ 1.25 µM).
Turning to `CC(=O)NC[C@H]1CN(c2ccc(N3CCOCC3)c(F)c2)C(=O)O1` [Linezolid, reference compound], the MIC is 1 µg/mL (≈ 2.96 µM) in test [2] (setting [7]), 2 µg/mL (≈ 5.93 µM) in test [3] (setting [8]), 2 µg/mL (≈ 5.93 µM) in test [4] (setting [9]) and 1 µg/mL (≈ 2.96 µM) in test [5] (setting [10]).
Take `COC(=O)N1C[C@H]2C[C@@]2(c2ccc(N3C[C@H](CNC(C)=O)OC3=O)cc2)C1`: the MIC was found to be 1 µg/mL (≈ 2.68 µM) in test [2] (setting [7]), 1 µg/mL (≈ 2.68 µM) in test [3] (setting [8]), 2 µg/mL (≈ 5.36 µM) in test [4] (setting [9]) and 1 µg/mL (≈ 2.68 µM) in test [5] (setting [10]).
As to `CC(=O)NC[C@H]1CN(c2ccc(C34CC3CN(C#N)C4)cc2)C(=O)O1` (stereo partly drawn), the MIC came to 0.5 µg/mL (≈ 1.47 µM) in test [2] (setting [7]), 1 µg/mL (≈ 2.94 µM) in test [3] (setting [8]), 0.5 µg/mL (≈ 1.47 µM) in test [4] (setting [9]) and 0.5 µg/mL (≈ 1.47 µM) in test [5] (setting [10]).
Turning to `CC(=O)N1CC2CC2(c2ccc(N3C[C@H](CO)OC3=O)cc2)C1` (stereo partly drawn) [drawing 484], the MIC in test [2] (setting [7]) worked out at 2 µg/mL (≈ 6.32 µM); in test [3] (setting [8]), 4 µg/mL (≈ 12.6 µM); in test [4] (setting [9]), 4 µg/mL (≈ 12.6 µM); in test [5] (setting [10]), 4 µg/mL (≈ 12.6 µM).
As for `CC(=O)NC[C@H]1CN(c2ccc(C34CC3CN(Cc3cccnc3)C4)cc2)C(=O)O1` (stereo partly drawn), the MIC is 4 µg/mL (≈ 9.84 µM) in test [2] (setting [7]), 8 µg/mL (≈ 19.7 µM) in test [3] (setting [8]), 4 µg/mL (≈ 9.84 µM) in test [4] (setting [9]) and 2 µg/mL (≈ 4.92 µM) in test [5] (setting [10]).
Take `CC(=O)NC[C@H]1CN(c2ccc(C34CC3CN(c3ccccn3)C4)cc2)C(=O)O1` (stereo partly drawn): the minimal inhibitory concentration (MIC) in test [2] (setting [7]) was found to be 0.5 µg/mL (≈ 1.27 µM); in test [3] (setting [8]) it was 0.5 µg/mL (≈ 1.27 µM); in test [4] (setting [9]) it was 1 µg/mL (≈ 2.55 µM); in test [5] (setting [10]), 1 µg/mL (≈ 2.55 µM).
On to `CC(=O)NCC(=O)N1CC2CC2(c2ccc(N3C[C@H](CNC(C)=O)OC3=O)cc2)C1` (stereo partly drawn), for which the MIC amounted to 4 µg/mL (≈ 9.65 µM) in test [2] (setting [7]), 2 µg/mL (≈ 4.83 µM) in test [3] (setting [8]), 4 µg/mL (≈ 9.65 µM) in test [4] (setting [9]) and 4 µg/mL (≈ 9.65 µM) in test [5] (setting [10]).
As to `CC(=O)N1CC2CC2(c2ccc(N3C[C@H](Cn4ccnn4)OC3=O)cc2)C1` (stereo partly drawn), the MIC in test [2] (setting [7]) is 2 µg/mL (≈ 5.44 µM); in test [3] (setting [8]) it was 2 µg/mL (≈ 5.44 µM); in test [4] (setting [9]), 1 µg/mL (≈ 2.72 µM); in test [5] (setting [10]) it was 1 µg/mL (≈ 2.72 µM).
On to `CC(=O)NC[C@H]1CN(c2ccc(C34CC3CN(C(C)=O)C4)cc2)C(=O)O1` (stereo partly drawn) [drawing 533], for which the MIC in test [2] (Table 9, S. aureus MRSA, read-out: Antimicrobial activity (in vitro MIC) ATCC 33591) came out at 1 µg/mL (≈ 2.8 µM); in test [3] (ATCC29212, Table 9, E. faecalis, read-out: Antimicrobial activity (in vitro MIC) ATCC 29212), 2 µg/mL (≈ 5.6 µM); in test [4] (Table 9, S. aureus MSSA, read-out: Antimicrobial activity (in vitro MIC) ATCC 29213), 2 µg/mL (≈ 5.6 µM); in test [5] (Table 9, read-out: Antimicrobial activity (in vitro MIC) ATCC 700221) it was 2 µg/mL (≈ 5.6 µM).
As to `CCOC(=O)OCC(=O)N1CC2CC2(c2ccc(N3C[C@H](CNC(C)=O)OC3=O)cc2)C1` (stereo partly drawn), the MIC in test [2] (setting [7]) was found to be 1 µg/mL (≈ 2.24 µM); in test [3] (setting [8]), 0.5 µg/mL (≈ 1.12 µM); in test [4] (setting [9]), 2 µg/mL (≈ 4.49 µM); in test [5] (setting [10]), 0.5 µg/mL (≈ 1.12 µM).
As for `COC(=O)N1CC2CC2(c2ccc(N3C[C@H](CNC(C)=O)OC3=O)cc2)C1` (stereo partly drawn), the MIC came out at 1 µg/mL (≈ 2.68 µM) in test [2] (setting [7]), 2 µg/mL (≈ 5.36 µM) in test [3] (setting [8]), 2 µg/mL (≈ 5.36 µM) in test [4] (setting [9]) and 1 µg/mL (≈ 2.68 µM) in test [5] (setting [10]).
As to `CC(=O)NC[C@H]1CN(c2ccc(C34CC3CN(S(C)(=O)=O)C4)cc2)C(=O)O1` (stereo partly drawn), the MIC in test [2] (setting [7]) is 1 µg/mL (≈ 2.54 µM); in test [3] (setting [8]) it was 2 µg/mL (≈ 5.08 µM); in test [4] (setting [9]), 2 µg/mL (≈ 5.08 µM); in test [5] (setting [10]), 1 µg/mL (≈ 2.54 µM).

A word on the MIC: it is the smallest concentration in the dilution series that meets the test's criterion for growth inhibition.
